Values quoted from earlier work as cited in patent US10912819B2, “Neuroprotective peptides derived from activity-dependent neuroprotective protein for treatment of neurological diseases” (priority 2016, dated 2021).
Read-outs that look alike come from different tables or passages of the source.

Assays:
[1] = not told; cited from earlier work
[2] = tested on: cornea; details: Kusano et al. 2010; cited from earlier work
[3] = ambient temperatures and atmospheric pressures, cited from earlier work
[4] = tested on: rabbits; details: cited from earlier work

Compound | extent of permeation increase by preservative [1] | permeation in vitro in the presence of preservatives [1] | effect on cell survival [2] | effect on corneal permeability [2] | period of stability ([3]; Anhydrous) [years] | period of stability ([3]; Hemihydrate) [years] | skin irritation ([4]; rabbit skin, 24 hour exposure) | signs of toxicity ([4]; rabbit, in vivo, 2000 mg/kg) | acute dermal LD50 ([4]; rabbits) | mortality ([4]; single dermal application of 2000 mg/kg) [%]
NC(=O)CC[C@@H]1NC(=O)[C@H](Cc2ccccc2)NC(=O)[C@H](Cc2ccc(O)cc2)NC(=O)CCSSC[C@@H](C(=O)N2CCC[C@H]2C(=O)N[C@H](CCCN=C(N)N)C(=O)NCC(N)=O)NC(=O)[C@H](CC(N)=O)NC1=O [DDAVP, desmopressin acetate] | chlorobutanol<benzalkonium<sorbate | always increased |  |  |  |  |  |  |  | 
benzalkonium chloride |  |  | adversely affected cell survival | affect corneal permeability |  |  |  |  |  | 
CC(C)(O)C(Cl)(Cl)Cl [chlorobutanol, trichloro-2-methyl-2-propanol] |  |  |  | not chlorobutanol affect corneal permeability | 3 | 5 | Non-irritant | no signs of toxicity | greater than 2000 mg/kg | 10
